# Measurements taken from PubChem BioAssay AID1918948 (Molecular Pharmacology Branch, DTP, NCI, 2023).
# Test system: K-562 leukemia growth, % test/control
# Experiment: Anticancer human tumor K-562 cell line growth inhibition;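 note: spheroids exposed to compounds for 7 days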;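 for viability, T/C: 100% = DMSO vehicle wells and lower values mean fewer viable cells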
# Details: spheroids with HUVEC and MSC; for IC50: curve of first compound; for viability, T/C: stronger effect = lower value
# Procedure, shortened: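 Complex spheroids of tumor cells with HUVEC and human MSCs, exposed to iadademstat combined with other agents. Each agent tested in half-log steps from near clinical Cmax (else 10 microM top), DMSO ≤0.25%.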
smiles,measurement,setting,value
Cn1ncnc1C1c2n[nH]c(=O)c3cc(F)cc(c23)NC1c1ccc(F)cc1 (stereo not given) + NC1CCC(NC2CC2c2ccccc2)CC1,IC50,second compound 0.1 µM,> 100 nM
same,IC50,second compound 0.316 µM,> 100 nM
same,IC50,second compound 1 µM,> 100 nM
same,IC50,second compound 3.16 µM,> 100 nM
same,IC50,second compound 10 µM,> 100 nM
same,"viability, T/C","second compound 0.1 µM, first compound 0.000316 µM",102%
same,"viability, T/C","second compound 0.1 µM, first compound 0.001 µM",97.6%
same,"viability, T/C","second compound 0.1 µM, first compound 0.00316 µM",101%
same,"viability, T/C","second compound 0.1 µM, first compound 0.01 µM",101%
same,"viability, T/C","second compound 0.1 µM, first compound 0.0316 µM",101%
same,"viability, T/C","second compound 0.1 µM, first compound 0.1 µM",97%
same,"viability, T/C","second compound 0.316 µM, first compound 0.000316 µM",101%
same,"viability, T/C","second compound 0.316 µM, first compound 0.001 µM",102%
same,"viability, T/C","second compound 0.316 µM, first compound 0.00316 µM",102%
same,"viability, T/C","second compound 0.316 µM, first compound 0.01 µM",99%
same,"viability, T/C","second compound 0.316 µM, first compound 0.0316 µM",101%
same,"viability, T/C","second compound 0.316 µM, first compound 0.1 µM",98.9%
same,"viability, T/C","second compound 1 µM, first compound 0.000316 µM",108%
same,"viability, T/C","second compound 1 µM, first compound 0.001 µM",102%
same,"viability, T/C","second compound 1 µM, first compound 0.00316 µM",99.7%
same,"viability, T/C","second compound 1 µM, first compound 0.01 µM",103%
same,"viability, T/C","second compound 1 µM, first compound 0.0316 µM",102%
same,"viability, T/C","second compound 1 µM, first compound 0.1 µM",101%
same,"viability, T/C","second compound 3.16 µM, first compound 0.000316 µM",100%
same,"viability, T/C","second compound 3.16 µM, first compound 0.001 µM",103%
same,"viability, T/C","second compound 3.16 µM, first compound 0.00316 µM",104%
same,"viability, T/C","second compound 3.16 µM, first compound 0.01 µM",104%
same,"viability, T/C","second compound 3.16 µM, first compound 0.0316 µM",104%
same,"viability, T/C","second compound 3.16 µM, first compound 0.1 µM",101%
same,"viability, T/C","second compound 10 µM, first compound 0.000316 µM",99.3%
same,"viability, T/C","second compound 10 µM, first compound 0.001 µM",99.6%
same,"viability, T/C","second compound 10 µM, first compound 0.00316 µM",101%
same,"viability, T/C","second compound 10 µM, first compound 0.01 µM",101%
same,"viability, T/C","second compound 10 µM, first compound 0.0316 µM",98.5%
same,"viability, T/C","second compound 10 µM, first compound 0.1 µM",96.1%
